Earlier results on 1 compound are cited in US12371748B2, “Genetic markers for predicting responsiveness to therapy with HDL-raising or HDL mimicking agent” (Hoffmann-La Roche Inc., priority 2014, dated 2025).

Structures are written as SMILES.

The conditions of this data set: rabbits; cited from earlier work.

In the case of `CCC(CC)CC1(C(=O)Nc2ccccc2SC(=O)C(C)C)CCCCC1` [dalcetrapib, thioisobutyric acid S-(2-{[1-(2-ethyl-butyl)-cyclohexanecarbonyl]-amino}-phenyl) ester], the LDL cholesterol entry was “decrease LDL cholesterol” and the “plasma HDL cholesterol” value was “increase plasma HDL cholesterol”.
